# Measured values as given in patent publication US5858972A, “Antithrombotic agents and methods of use” (La Jolla Cancer Research Foundation, priority 1996, dated 1999).
# Where a SMILES comes first, the peptide text is derived from it. Bridges are numbered along the chain shown (N, C = ends). [ ]: non-standard residue; d: D form. Nle = CCCC[C@H](N)C(=O)O
# Columns and labels:
# [1] = molecular target: T1, GP-IIb/IIIa (Homo sapiens, UniProt P05106+P08514); experiment: Platelet aggregation in citrated (low Ca2+) versus heparinized (physiological Ca2+) plasma: apparent affinity for GP-IIb/IIIa; assay type: cell-based; details: 10 μM ADP; for difference in apparent binding affinity for GP-IIb/IIIa at low (citrate) versus higher (heparin) calcium concentration, in words: citrated vs heparinized plasma; for increase (separation) in apparent affinity for GP-IIb/IIIa in low calcium concentration as compared to physiological calcium concentration: citrated plasma (about 0.18 mM Ca2+) vs heparinized plasma (2.3 mM Ca2+)
# T1 construct: Platelet-rich plasma (PRP) was prepared by centrifuging heparinized; endogenous in cells; host or cells: human platelets in platelet-rich plasma (citrated or heparinized) from normal volunteers
# Source text: (§1) This example provides platelet aggregation studies for various peptides of the present invention. The studies compare the effect of the peptide on aggregation in both citrated and heparinized plasma. Because citrate is a chelating agent for calcium ions, the citrated plasma has a low calcium concentration as is characteristic of a clot site. In contrast, heparinized plasma has a calcium concentration similar to that of physiological conditions elsewhere in the blood stream.
# (§2) Whole blood was drawn by a licensed phlebotomist from the antecubital vein using a 21 gauge butterfly infusion set and syringe from normal human volunteers. Platelet-rich plasma (PRP) was prepared by centrifuging heparinized (20 Units lithium porcine mucosa heparin/ml whole blood) or citrated (0.38% sodium citrate) whole blood for 12 min. at 200 relative centrifugal force (RCF). Platelet-poor plasma (PPP) is prepared by centrifuging PRP at 750 RCF for 12 min. and collecting the supernatant. Blood cell counts were performed using a Serano Baker automated cell counter. PRP platelet counts were adjusted to 200,000/μl by dilution with PPP. Final plasma free Ca+^2 concentrations were approximately 0.18 mM for citrated plasma and 2.3 mM for heparinized plasma. Platelet aggregation was determined spectrophotometrically utilizing a four channel aggregometer (Chrono-Log 570) by measuring the increase of light transmission through a stirred suspension of PRP maintained at 37° C. Dilutions of the peptides were added to the suspensions and aggregation induced with 10 μM adenosine diphosphate (ADP). Values were expressed as percentage of aggregation in the absence of peptides. This represents the percentage of light transmission standardized to PRP and PPP samples yielding 0% and 100% light transmission respectively.
# (§3) Peptide anti-aggregation potencies were determined from dose-responsive curves for the inhibition of the maximum aggregation responses stimulated by high doses of ADP (10 μm). The 50% inhibitory concentration of each peptide (IC50) was determined by regression analysis of these curves.
# [2] = test system: platelets (platelet-rich plasma); experiment: ADP-induced platelet aggregation in citrated platelet-rich plasma (low Ca2+); assay type: cell-based; details: human PRP, 10 μM ADP; for IC50, platelet aggregation in citrated plasma: citrated plasma (about 0.18 mM free Ca2+), 37° C.
# Source text: as §1, §2, §3
# T1 sequence (P08514 32-887 limits assumed): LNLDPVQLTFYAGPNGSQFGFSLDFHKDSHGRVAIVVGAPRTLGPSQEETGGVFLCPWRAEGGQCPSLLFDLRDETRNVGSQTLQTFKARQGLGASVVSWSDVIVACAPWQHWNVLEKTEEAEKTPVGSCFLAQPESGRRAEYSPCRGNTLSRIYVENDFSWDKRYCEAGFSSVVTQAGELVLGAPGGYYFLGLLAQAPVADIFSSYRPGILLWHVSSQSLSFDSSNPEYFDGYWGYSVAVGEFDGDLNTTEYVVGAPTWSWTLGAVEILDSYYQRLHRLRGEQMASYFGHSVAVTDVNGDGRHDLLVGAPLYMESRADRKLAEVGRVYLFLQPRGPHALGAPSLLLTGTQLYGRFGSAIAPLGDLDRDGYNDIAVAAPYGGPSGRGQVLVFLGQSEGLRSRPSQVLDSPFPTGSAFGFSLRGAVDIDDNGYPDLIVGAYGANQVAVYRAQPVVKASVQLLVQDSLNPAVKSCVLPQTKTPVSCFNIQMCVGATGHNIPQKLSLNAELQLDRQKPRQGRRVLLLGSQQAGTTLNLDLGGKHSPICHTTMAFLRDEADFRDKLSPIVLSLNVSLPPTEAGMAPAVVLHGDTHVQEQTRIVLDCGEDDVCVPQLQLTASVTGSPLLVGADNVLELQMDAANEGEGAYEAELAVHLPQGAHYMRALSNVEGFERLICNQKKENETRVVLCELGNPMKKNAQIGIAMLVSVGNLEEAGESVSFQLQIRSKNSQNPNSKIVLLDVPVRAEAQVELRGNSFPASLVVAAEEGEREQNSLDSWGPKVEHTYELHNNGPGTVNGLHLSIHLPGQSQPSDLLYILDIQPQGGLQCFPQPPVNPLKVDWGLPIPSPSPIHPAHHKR
# T1 sequence (P08514 891-1039 partner limits assumed): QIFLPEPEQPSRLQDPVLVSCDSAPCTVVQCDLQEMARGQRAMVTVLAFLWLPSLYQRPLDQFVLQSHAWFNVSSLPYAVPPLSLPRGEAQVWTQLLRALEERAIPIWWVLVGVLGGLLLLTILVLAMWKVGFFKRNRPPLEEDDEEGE
# T1 sequence (P05106 27-788): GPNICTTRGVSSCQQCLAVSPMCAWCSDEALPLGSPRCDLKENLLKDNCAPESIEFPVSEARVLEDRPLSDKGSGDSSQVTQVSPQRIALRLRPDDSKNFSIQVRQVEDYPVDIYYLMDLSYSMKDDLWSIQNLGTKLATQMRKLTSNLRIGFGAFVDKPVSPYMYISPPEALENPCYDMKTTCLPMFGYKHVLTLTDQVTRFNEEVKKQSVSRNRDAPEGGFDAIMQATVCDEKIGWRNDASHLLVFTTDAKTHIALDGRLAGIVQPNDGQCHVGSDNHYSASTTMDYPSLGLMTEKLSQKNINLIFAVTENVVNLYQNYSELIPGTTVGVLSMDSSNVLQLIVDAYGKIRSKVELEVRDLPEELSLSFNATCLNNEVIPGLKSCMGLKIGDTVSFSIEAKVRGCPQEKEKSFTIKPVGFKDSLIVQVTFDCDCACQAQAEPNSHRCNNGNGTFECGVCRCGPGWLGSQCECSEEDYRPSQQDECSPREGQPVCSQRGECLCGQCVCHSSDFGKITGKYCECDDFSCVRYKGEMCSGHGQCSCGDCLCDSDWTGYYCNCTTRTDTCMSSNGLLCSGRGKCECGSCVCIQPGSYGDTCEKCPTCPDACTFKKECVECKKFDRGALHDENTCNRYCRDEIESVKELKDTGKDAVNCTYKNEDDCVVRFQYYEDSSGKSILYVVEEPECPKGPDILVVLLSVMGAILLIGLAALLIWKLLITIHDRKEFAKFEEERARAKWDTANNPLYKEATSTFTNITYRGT
SMILES,"difference in apparent binding affinity for GP-IIb/IIIa at low (citrate) versus higher (heparin) calcium concentration, in words [1]","IC50, platelet aggregation in citrated plasma [2] [µg/mL]",increase (separation) in apparent affinity for GP-IIb/IIIa in low calcium concentration as compared to physiological calcium concentration [1] [fold],"inhibitory activity on platelet aggregation stimulated with ADP, in words [2]"
"COc1ccc(C[C@@H]2NC(=O)[C@H](CC(=O)O)NC(=O)CNC(=O)[C@H](C)NC(=O)[C@@H]3CCCN3C(=O)[C@H](CC(N)=O)NC(=O)[C@@H](NC(C)=O)CSSC[C@@H](C(N)=O)NC(=O)[C@H](CCCNC(=N)N)NC2=O)cc1 [SEQ ID NO. 2, Ac-CNPAGD(Y-OMe)RC-NH2] (Ac-CNPAGDY(Me)RC-NH2; disulfide 1-9)",a separation between the apparent binding affinity,309,,
"CCCC[C@@H]1NC(=O)[C@@H]2CCCN2C(=O)[C@H](CC(N)=O)NC(=O)[C@@H](NC(C)=O)CSSC[C@@H](C(N)=O)NC(=O)[C@H](CCCNC(=N)N)NC(=O)[C@H](Cc2ccc(OC)cc2)NC(=O)[C@H](CC(=O)O)NC(=O)CNC1=O [SEQ ID NO. 3, Ac-CNP(Nle)GD(Y-OMe)RC-NH2] (Ac-CNP[Nle]GDY(Me)RC-NH2; disulfide 1-9)",,43,20,
"COc1ccc(C[C@H](NC(=O)[C@H](CC(=O)O)NC(=O)CNC(=O)[C@H](C)NC(=O)[C@@H]2CCCN2C(=O)[C@H](CC(N)=O)NC(=O)[C@H](CS)NC(C)=O)C(=O)N[C@@H](CCCNC(=N)N)C(=O)N[C@@H](CS)C(N)=O)cc1 [SEQ ID NO. 5, Ac-CNPAGD(Y-OMe)RC-NH2] (Ac-CNPAGDY(Me)RC-NH2)",no difference in their apparent affinity for GP-IIb/IIIa at low versus higher calcium concentration,> 370,,little to no activity
"CCCC[C@H](NC(=O)[C@@H]1CCCN1C(=O)[C@H](CC(N)=O)NC(=O)[C@H](CS)NC(C)=O)C(=O)NCC(=O)N[C@@H](CC(=O)O)C(=O)N[C@@H](Cc1ccc(OC)cc1)C(=O)N[C@@H](CCCNC(=N)N)C(=O)N[C@@H](CS)C(N)=O [SEQ ID NO. 6, Ac-CNP(Nle)GD(Y-OMe)RC-NH2] (Ac-CNP[Nle]GDY(Me)RC-NH2)",no difference in their apparent affinity for GP-IIb/IIIa at low versus higher calcium concentration,> 370,,little to no activity
"COc1ccc(C[C@@H]2NC(=O)[C@H](CC(=O)O)NC(=O)CNC(=O)[C@H](CCCNC(=N)N)NC(=O)[C@@H]3CCCN3C(=O)[C@H](CC(N)=O)NC(=O)[C@@H](NC(C)=O)CSSC[C@@H](C(N)=O)NC(=O)[C@H](CCCNC(=N)N)NC2=O)cc1 [SEQ ID NO. 8, Ac-CNPRGD(Y-OMe)RC-NH2]",,0.2,12,
